Data as given in patent US7122360B1, “Polypeptides, polynucleotides and uses thereof” (University of Dundee, priority 1998, dated 2006).

Key:
MSK1 [1] = test: Activation of endogenous MSK1 in 293 cells (immunoprecipitation and Crosstide assay); assay type: cell-based, human; details: for activation of MSK1 by EGF and TPA: 50 μM PD 98059 or 10 μM SB 203580, 1 h
MSK1 [2] = test: Activation of MSK1 by TNF in HeLa cells; assay type: cell-based; details: 50 μM PD 98059, 10 μM SB 203580, TNF 10 ng/ml
Excerpt: (§1) Cell Culture, stimulation and cell lysis.

CREB and ATF1 = test: TNF induced CREB and ATF1 phosphorylation in HeLa cells; assay type: cell-based; details: for TNF-induced phosphorylation of CREB after 15 min / TNF-induced phosphorylation of CREB and ATF1 after 5 min: 50 μM PD 98059, 10 μM SB 203580
Procedure: FIG. 12. […] The position of CREB and ATF1 on the blots is indicated. The time of exposure (exp) of the blots before development is indicated.
(§2) Immunoblotting for phosphorylated CREB and ATF1. Cell extracts were prepared and immunoblotting of these carried out as described (Tan et al., 1996) using a phosphospecific antibody recognizing CREB phosphorylated on Ser 133 and ATF1 phosphorylated on Ser63 purchased from UBI (Lake Placid, USA). Detection of phosphorylated CREB and ATF1 proteins was performed using the enhanced chemiluminescence reagent (Amersham).

CREB = test: NGF-induced phosphorylation of CREB in PC12 cells; assay type: cell-based; details: 50 μM PD 98059, 10 μM SB 203580, 5 μM Ro 318220, NGF 30 ng/ml 15 min
Procedure: as §2

MSK1 [3] = test: Arsenite and FGF-induced activation of MSK1 in SK-N-MC cells; assay type: cell-based; details: for FGF-induced activation of MSK1: 50 μM PD 98059, 10 μM SB 203580, FGF 50 ng/ml 15 min
Procedure: (§3) FIG. 14. […] After cell lysis aliquots were assayed for either MSK1 (A), MAPKAP-K1 (B), MAPKAP-K2 (C) after their immunoprecipitation from the lysates or immunoblotted for phosphorylation of CREB and ATF1 (D).
as §1

MAPKAP-K2 = test: Activation of MAPKAP-K2 in SK-N-MC cells; assay type: cell-based; details: 50 μM PD 98059, 10 μM SB 203580, 5 μM Ro 318220
Procedure: as §3, §1

MSK1 [4] = test: LPS-induced activation of MSK1 in RAW 264 macrophages; assay type: cell-based, mouse; details: for LPS-stimulated phosphorylation of MSK1: 50 μM PD 98059 or 10 (M SB203580), FIG. 15; for LPS-induced activation of MSK1: LPS 100 ng/ml 1 h, 10 μM UO 126, 10 μM SB 203580, 5 TM Ro 318220
Procedure: FIG. 15. […] After cell lysis aliquots were assayed for either MSK1 (A), MAPKAP-K1 (B), MAPKAP-K2 (C) after their immunoprecipitation from the lysates or immunoblotted for phosphorylation of CREB and ATF1 (D).
FIG. 18. Effect of inhibitors on the LPS-induced activation of protein kinases in RAW 264 macrophages. Macrophages were incubated for 1 h in the presence or absence 10 μM UO 126 (U) and/or 10 μM SB 203580 (SB), or 5 TM Ro 318220 (Ro), then stimulated for 1 h with or without 100 ng/ml LPS in the continued presence or absence of the inhibitors. MSK1(A), MSK2 (B), MAPKAP-KI (C) and MAPKAP-K2 (D) were then assayed after immunoprecipitation from the lysates.
(§4) Cell culture and stimulation. RAW 264 macrophages were maintained in a 95% air/5% CO2 atmosphere in Dulbecco's modified Eagle's medium (DMEM) plus 10% (v/v) heat-inactivated foetal calf serum, 100 U/ml penicillin, […] streptomycin. The day before stimulation, the macrophages were plated at a density of 2×10^6 cells per 6 cm plate and 2 h before stimulation, the medium removed and replaced with 2 ml of DMEM. Where indicated, […] (10 TM) and/or PD 98059 (50 Tm), or U0126 (10 TM) or Ro 318220 (5 TM), were added 1 h before stimulation.
Cell lysis. After stimulation, the medium was aspirated and the cells were solubilized in 0.2 ml of ice cold lysis buffer (50 mM Tris-acetate pH 7.0, 1 mM EDTA, 1 mM EGTA, 1% (w/v) Triton X-100, 1 mM sodium orthovanadate, 10 mM sodium glycerophosphate, 50 mM NaF, 5 mM sodium pyrophosphate, 0.27 M sucrose, 2 TM microcystin-LR, 1 mM benzamidine, 0.1% (v/v) 2-mercaptoethanol and “complete” proteinase inhibitor cocktail—one tablet per 50 ml). The samples were then snap frozen in liquid nitrogen and stored in aliquots at −80° C. until analysis. Protein concentrations were determined according to [7].

MSK2 = test: LPS-induced activation of MSK2 in RAW 264 macrophages; assay type: cell-based, mouse; details: LPS 100 ng/ml 1 h, 10 μM UO 126, 10 μM SB 203580, 5 TM Ro 318220
HPRT mRNA = test: HPRT housekeeping gene mRNA in RAW 264 macrophages, RT-PCR; assay type: cell-based, mouse; details: PD 98059 (50 TM), SB 203580 (10 TM), Ro 318220 (5 TM)
Procedure: FIG. 21. Effect of PD 98059 and SB 203580 on gene transcription in RAW 264 macrophages. (A) Cells were stimulated for the times indicated with LPS (100 ng/ml). Total RNA was extracted at each time point and mRNA encoding IL-1, COX-2 and HRPT was determined using the reverse transcriptase polymerase chain reaction (Section 2.6). (B) As in A, except that the macrophages were incubated for 1 h in the presence or absence of PD 98059 (50 TM) and/or SB 203580 (10 TM), or Ro 318220 (5 TM), then stimulated for 3 h in the absence or presence of LPS, and in the continued presence or absence of the inhibitors. RTPCR was performed using oligonucleotides encoding fragments of IL-1, COX-2 and HPRT.
as §4
Reverse transcripts polymerase chain reactions. Total RNA was prepared from LPS-stimulated or control RAW 264 cells using the Rneasy Mini Kit according to the manufacturer's protocol. Total RNA was measured and 100 ng was reverse transcribed using Promega AMV reverse transcriptase (5 U/ml) with the oligonucleotides […] and […] TGA (coding for the IL-1 gene) and […] and […] (coding for the COX-2 gene). Conditions for PCR amplification of the resulting first-stand DNA template were 94° C. denaturing for 30 sec, 60° C. annealing for 1 min, 68° C. extension for 1 min, 30 cycles using thermostable Tf1 DNA polymerase (SU/ml), and 1 mM MgSO4.

MSK1 [5] = test: NGF-induced activation of MSK1 in PC12 cells; details: 50 μM PD 98059, 10 μM SB 203580, NGF 30 ng/ml 15 min

C[S+]([O-])c1ccc(-c2nc(-c3ccncc3)c(-c3ccc(F)cc3)[nH]2)cc1 (centres unmarked) [SB 203580]
activation of MSK1 by EGF and TPA (MSK1 [1]): but not by SB 203580 | activation of MSK1 by stressful stimuli (MSK1 [1]; sodium arsenite, UV radiation or H2O2, 50 μM PD 98059 or 10 μM SB 203580): largely inhibited | activation of MSK1 by TNF after 5 min (MSK1 [2]): completely inhibited | activation of MSK1 by TNF after 15 min (MSK1 [2]): partially blocked | TNF-induced phosphorylation of CREB after 15 min (CREB and ATF1): partially suppressed | TNF-induced phosphorylation of CREB and ATF1 after 5 min (CREB and ATF1): prevented | NGF-induced phosphorylation of CREB (CREB): not significantly affected | FGF-induced activation of MSK1 (MSK1 [3]): only partially suppressed | sodium arsenite-induced activation of MSK1 (MSK1 [3]; 50 μM PD 98059, 10 μM SB 203580, arsenite 0.5 mM 15 min): prevented | activation of MAPKAP-K2 by sodium arsenite and FGF (MAPKAP-K2): completely prevented | LPS-stimulated phosphorylation of MSK1 (MSK1 [4]): appear to inhibit | LPS-induced activation of MSK1 (MSK1 [4]): only inhibited partially | LPS-induced activation of MSK2 (MSK2): only inhibited partially | mRNA encoding the housekeeping gene HPRT (HPRT mRNA): unaffected | NGF-induced activation of MSK1 (MSK1 [5]): not significantly affected

Cn1cc(C2=C(c3cn(CCCSC(=N)N)c4ccccc34)C(=O)NC2=O)c2ccccc21 [Ro 318220]
TNF-induced CREB phosphorylation (CREB and ATF1; 5 μM Ro 318220): completely blocked | NGF-induced phosphorylation of CREB (CREB): suppressed | MSK1 activation in cells (MSK1 [3]; 5 μM Ro 318220, inhibitor removed on immunoprecipitation): does not affect MSK1 activation | activation of MAPKAP-K2 by sodium arsenite and FGF (MAPKAP-K2): does not affect | LPS-induced activation of MSK1 (MSK1 [4]): does not affect | LPS-induced activation of MSK2 (MSK2): does not affect | mRNA encoding the housekeeping gene HPRT (HPRT mRNA): unaffected

COc1cccc(-c2cc(=O)c3ccccc3o2)c1N [PD 98059]
activation of MSK1 by EGF and TPA (MSK1 [1]): largely prevented | activation of MSK1 by TNF after 5 min (MSK1 [2]): unaffected | activation of MSK1 by TNF after 15 min (MSK1 [2]): partially blocked | TNF-induced phosphorylation of CREB after 15 min (CREB and ATF1): slightly suppressed | TNF-induced phosphorylation of CREB and ATF1 after 5 min (CREB and ATF1): unaffected | NGF-induced phosphorylation of CREB (CREB): not significantly affected | FGF-induced activation of MSK1 (MSK1 [3]): only partially suppressed | LPS-stimulated phosphorylation of MSK1 (MSK1 [4]): appear to inhibit | mRNA encoding the housekeeping gene HPRT (HPRT mRNA): unaffected | NGF-induced activation of MSK1 (MSK1 [5]): not significantly affected
